Results published in US10240124B2, “Cell culture substrate comprising a laminin and a cadherin” (BioLamina AB, priority 2011, dated 2019).

Legend:
hES cells [1] = test: In vivo imaging and migration assay; format: cell-based, human
Description: 24-well plates were coated by extracellular matrix proteins and blocked by O3 medium containing bovine serum albumin. The ES cells were plated at cell density of 30,000-40,000 cells/cm^2 onto extracellular matrix-coated plates and left to adhere for half an hour in a cell incubator. After that, the plate was transferred into high content imaging system Operetta (PerkinElmer) equipped with environmental control unit, which allowed to keep 37° C., 5% CO2. For two movies that were made, the brightfield images were taken once in 15 minutes during 24 hours after plating using Harmony software (PerkinElmer), exported, and analyzed using ImageJ software (NIH, the US). For migration assay the images were taken every seven minutes during 18 hours after plating. Images acquired between the fifth and seventh hours after plating were analyzed using MTrackJ plug-in (University Medical Center, Rotterdam, The Netherlands). 100 attached cells on each coating were traced and mean distances from the current to the previous point of the track were calculated. Error bars show standard error of the mean s.e.m. (n=100).

hES cells [2] = test: Cell adhesion assay, 1 hour (Example 2); format: cell-based, human; details: compared with Matrigel or LN-111, not shown
Description: Tissue cell culture plates were coated overnight at 4° C. with sterile solutions of the ECM proteins, such as human recombinant LN-521, all at a concentration of 30 μg/ml (5 μg/cm^2). Control plates were coated with Matrigel according to the STEMCELL Technologies' instructions. Prior to use, dishes were pre-warmed in an incubator for one hour after which prewarmed O3 medium was added without additional washing of the dish. After applying a fresh LN-521 solution to a new dish, the remaining LN-521 solution could be used at least once more. All the adhesion, survival, and inhibition of survival experiments were carried out using fresh coating materials.
(§1) Briefly, 96-well plates were coated by extracellular matrix proteins as described above and blocked by O3 medium containing bovine serum albumin. The ES cells were plated at cell density of 50,000 cells/cm^2 onto extracellular matrix-coated plates and left to adhere for 1 hour in a cell incubator. After that the plates were washed 3 times with the medium to remove the non-adherent cells, and then the adherent cells were fixed for 20 minutes by 5% glutaraldehyde, stained by 0.1% Crystal Violet. (Kebo Lab, Spanga, Sweden, http://www.kebolab.se). After one hour and 3 washes with water, Crystal Violet was extracted with 10% acetic acid and quantified by measuring optical density at 570 nm. All the experiments were performed in quadruplicate.

myosin light chain (MLC) = test: Western blot of phosphorylated myosin light chain; format: cell-based, human; details: one and six hours after plating, FIG. 12 and 13
Description: HS 181 cells were trypsinized into single cell suspension as described above. For inhibition experiments, the cells were kept in O3 medium with blocking antibodies or pathway inhibitors for 30 minutes and then 450K cells were plated on 35 mm dishes precoated with the appropriate matrix coating. For other experiments, same number of cells was plated directly after trypsinization. […] After two washings in ice-cold PBS, the plates with cells were snap frozen in liquid nitrogen and stored at −80° C. To prepare samples for western blots and ELISA, the plates were slowly thawed and kept on ice with 100-150 μl of lysis buffer (50 mM Tris-HCl, pH7.5, 150 mM NaCl, 0.5% deoxycholate, 0.5% SDS, 1% Triton X-100, 1% Igepal, Complete™ (Roche) and Phospho-Stop™ (Roche)) on top. Then, the cells were scraped, pipetted and sheared through a 27 G ¾″ needle. After that, the cell pellets were clarified by centrifugation at 16,100 rcf for 15 minutes at 4° C. For western blots, 4-12% gradient gels were used for SDS electrophoresis and the proteins were transferred to PVDF membranes. The membrane was hybridized with the antibody of interest according to the manufacturer's instructions. […] For the densitometry analysis the films were scanned at 2,400 dpi and analyzed by the Chemilmager5500 program (1 D-Multi Line densitometry mode). […]

hES cells [3] = test: Cell survival assay, 24 hours (Example 2); format: cell-based, human
Description: as §1
The survival assay was performed as described for the cell adhesion assay above, except that the cells were left in the cell incubator for 24 hours. For inhibition of survival assay, the cells were kept in a medium with function blocking antibodies at the concentrations recommended by the manufacturer or pathway inhibitors at concentrations indicated in the text for 30 minutes, and then plated on the coated dishes. All the experiments were performed in quadruplicate.
Pluripotent hES cells express α1, α5, β1, β2 and γ1 laminin chains. To compare the adhesion and clonal survival of hES cells plated from single cell suspension to different coating substrata, hES cells growing as monolayers on LN-511 or as clusters on a feeder layer were trypsinized into single cell suspension in O3 medium and plated on cell culture dishes coated with Matrigel, LN-111, LN-511, LN-521 or a mixture of LN-511 and LN-521, in the absence or presence of a ROCK inhibitor (Y-27632) and analyzed after 24 hours.

SCID mouse = test: Teratoma formation; format: in vivo; details: HS181 13 passages, H1 12 passages in O3; H1 7 passages in TeSR2
Description: Teratoma formation experiments were performed by implantation of approximately 10^6 cells beneath the testicular capsule of a young (7-week-old) severe combined immunodeficiency (SCID) mouse. Three animals per each cell line were used. Teratoma growth was observed by weekly palpation, and the mice were sacrificed eight weeks after the implantation. The teratomas were fixed, and sections were stained with hematoxylin and eosin (HE) or with hematoxylin, eosin and PAS (HE-PAS). […] All animal experiments were performed at the infection-free animal facility of the Karolinska University Hospital in accordance with ethical committee approval.

Integrin α6β1 = Integrin α6β1 (Homo sapiens, UniProt P05556+P23229); details: cited from earlier work
Chain of Integrin α6β1 (P23229 24-1130): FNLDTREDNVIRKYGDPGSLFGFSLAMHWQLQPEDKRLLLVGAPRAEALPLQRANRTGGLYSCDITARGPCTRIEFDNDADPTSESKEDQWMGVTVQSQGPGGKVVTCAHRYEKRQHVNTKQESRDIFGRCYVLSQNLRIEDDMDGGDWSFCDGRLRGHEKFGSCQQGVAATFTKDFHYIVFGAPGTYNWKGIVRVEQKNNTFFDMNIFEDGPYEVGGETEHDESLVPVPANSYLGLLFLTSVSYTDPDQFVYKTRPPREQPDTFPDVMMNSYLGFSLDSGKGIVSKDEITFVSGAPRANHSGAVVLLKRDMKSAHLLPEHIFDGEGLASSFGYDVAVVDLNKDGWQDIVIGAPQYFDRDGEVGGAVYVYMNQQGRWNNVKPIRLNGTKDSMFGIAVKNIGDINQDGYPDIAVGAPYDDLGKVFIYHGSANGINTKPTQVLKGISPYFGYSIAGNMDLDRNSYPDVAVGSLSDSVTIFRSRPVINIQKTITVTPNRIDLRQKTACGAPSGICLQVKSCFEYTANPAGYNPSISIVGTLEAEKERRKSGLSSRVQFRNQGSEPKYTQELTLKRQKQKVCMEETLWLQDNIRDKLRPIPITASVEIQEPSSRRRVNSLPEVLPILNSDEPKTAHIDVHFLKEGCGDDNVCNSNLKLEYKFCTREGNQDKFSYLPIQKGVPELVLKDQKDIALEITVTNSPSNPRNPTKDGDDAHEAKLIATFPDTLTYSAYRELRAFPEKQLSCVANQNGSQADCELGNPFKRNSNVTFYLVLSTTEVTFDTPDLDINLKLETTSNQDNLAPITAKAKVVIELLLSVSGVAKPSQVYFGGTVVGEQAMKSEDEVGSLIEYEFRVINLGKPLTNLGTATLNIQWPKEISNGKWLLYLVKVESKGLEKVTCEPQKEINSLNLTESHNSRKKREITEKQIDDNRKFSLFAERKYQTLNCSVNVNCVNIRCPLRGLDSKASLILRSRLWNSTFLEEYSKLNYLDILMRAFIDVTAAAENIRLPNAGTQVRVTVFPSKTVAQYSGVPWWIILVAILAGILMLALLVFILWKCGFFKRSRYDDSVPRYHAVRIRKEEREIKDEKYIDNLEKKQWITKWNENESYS
Chain of Integrin α6β1 (P05556 21-798): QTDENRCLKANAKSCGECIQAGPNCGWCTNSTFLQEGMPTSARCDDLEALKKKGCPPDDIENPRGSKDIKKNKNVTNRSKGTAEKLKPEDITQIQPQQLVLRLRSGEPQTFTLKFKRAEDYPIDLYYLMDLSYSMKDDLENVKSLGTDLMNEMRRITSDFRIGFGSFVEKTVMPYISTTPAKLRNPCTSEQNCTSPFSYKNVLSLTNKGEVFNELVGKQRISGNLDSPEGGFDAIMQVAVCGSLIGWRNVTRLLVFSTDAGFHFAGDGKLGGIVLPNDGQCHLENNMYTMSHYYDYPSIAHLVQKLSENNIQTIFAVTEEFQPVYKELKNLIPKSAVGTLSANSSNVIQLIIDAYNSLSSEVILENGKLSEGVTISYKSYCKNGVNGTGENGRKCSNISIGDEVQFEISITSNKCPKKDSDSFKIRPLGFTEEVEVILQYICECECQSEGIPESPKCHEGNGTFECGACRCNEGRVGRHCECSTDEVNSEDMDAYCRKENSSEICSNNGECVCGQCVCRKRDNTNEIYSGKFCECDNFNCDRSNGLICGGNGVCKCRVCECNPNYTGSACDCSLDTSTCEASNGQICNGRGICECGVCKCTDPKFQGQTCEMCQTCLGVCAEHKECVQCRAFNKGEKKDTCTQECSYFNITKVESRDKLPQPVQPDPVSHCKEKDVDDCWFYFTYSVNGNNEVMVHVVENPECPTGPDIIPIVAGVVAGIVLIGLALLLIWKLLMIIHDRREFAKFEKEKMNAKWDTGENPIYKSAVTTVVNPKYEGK

Human ES cells = test: Real-time quantitative RT-PCR of Oct4 and Nanog (Example 1); format: cell-based; details: FIG. 11
Description: Total RNA was isolated and cDNA was synthesized as described in Rodin et al., Nature Biotechnol., vol. 28, pp. 611-615 (2010). Real-time quantitative RT-PCR Taqman assays were performed using the Applied Biosystems 7300 Real-Time PCR System. All reactions were done in quadruplicate with predeveloped gene expression assay mix (Applied Biosystems) containing primers and a probe for the mRNA of interest. Additional reactions for each experiment included predeveloped gene expression assay mix for GAPDH, used to normalize the RNA input. All data were analyzed with 7300 System SDS Software version 1.4.

Substance: LN-521: protein formed by joining α5, β2 and γ1 laminin chains; human recombinant, produced in HEK293 cells
- cell migration by imaging compared with Matrigel (hES cells [1]; 24 hours imaging): much faster
- motility of hES cells compared with other coatings (hES cells [1]; between the fifth and seventh hours after plating, FIG. 14): higher than that of the cells on other coatings
- spreading of the cells after one hour (hES cells [2]): clearly better
- phosphorylation of MLC compared with cells on Matrigel and LN-111 (myosin light chain (MLC)): even higher
- survival of Y-27632 treated human ES cells compared with Matrigel (hES cells [3]; 40,000 cells per 1 cm^2, 10 μM Y-27632): survived better
- survival after 24 hours relative to LN-511 (hES cells [3]; O3 medium): three times higher
- survival after 24 hours relative to Matrigel (hES cells [3]; O3 medium): approximately 20 times
- survival of hES cells 24 hours after plating from single cell suspension (hES cells [3]; O3 medium, absence of ROCK inhibitor): did so as single cells
- survival relative to Matrigel without exogenous bFGF (hES cells [3]; exogenous bFGF removed from the O3 medium): 20 times
- survival 24 hours after plating in medium lacking all growth factors of the TeSR1 formulation (hES cells [3]; no bFGF, LiCl, GABA, pipecolic acid, TGFβ): survived
- histology of teratomas formed in SCID mice (SCID mouse): development of tissues containing all three germ lineages
- binding affinity of integrin α6β1 compared with LN-111 (Integrin α6β1): higher than that for LN-111
- number of mRNA transcripts of Oct4 and Nanog compared with Matrigel (Human ES cells): higher numbers of transcripts
